According to patent US20210108199A1, “Treatment for aggressive cancers by targeting C9ORF72” (The Trustees of Columbia University in the City of New York, priority 2017, published 2021):

Columns and labels:
Assay type in all cases: cell-based
C9 = C9 knock down efficiency by western blot; settings: U87 cells, vs control siRNA
Description: For siRNA knockdown experiments, siRNAs targeting C9 mRNA were designed with the Whitehead website (sirna.wi.mit.edu) and with RNAxs webserver (rna.tbi.univie.ac.at/cgi-bin/RNAxs). All siRNAs were obtained from GenePharma™. Lipofectamine RNAiMAX (Thermo Scientific™) was used as the transfection reagent for all siRNA experiments (according to the manufacturer's instructions). siRNA concentration was 40 nM per 60 mm plate. After 6 hours, media was changed and cells were treated again with siRNA after 48 hours. For RNA and protein analysis, cells were harvested after 48 hours following the second treatment. All KD experiments were performed in three biological replicates. The siRNA sequences were as follows: […] (SEQ ID NO:631; sense) and […] […]
For Western blot analysis, cells were lysed with lysis buffer (20 mM sodium phosphate (pH 7.0), 250 mM NaCl, 30 mM sodium pyrophosphate, 0.1% Nonidet™ P-40, 5 mM EDTA, 10 mM NaF, 0.1 mM Na3VO4, and 1 mM PMSF) supplemented with complete protease inhibitors (Roche™) and homogenized by passage through a 28 gauge needle. Protein concentration was measured with a Bio-Rad™ protein assay dye reagent and results were read using a spectrophotometer (BiophotometerPlus™ by Eppendorf™). […] Quantitation of blots was performed Image Studio Lite software (LI-COR Biosciences™). […]

U87 cells = assay: Mitochondrial imaging (MitoTracker) and MiNA quantitation
Description: Mitchondria imaging in U87 cell was performed with MitoTracker™ Red CMXRos (ThermoFisher™, M7512) according to the manufacturer's protocol. Cells then were imaged as described herein.
Quantitation was performed using a publicly available macro MiNA for ImageJ™ as described.
The vacuoles were studied to investigate whether they are swollen mitochondria, because several reports observed vacuolated mitochondria in ALS patients and mice models that resemble the phenotype seen here. A fluorescent mitochondrial dye was used to visualize mitochondria upon C9 KD. […] See FIG. 5A and FIG. 5B, which show an IF image of U87 cells treated as in Example 1 and stained with MitoTracker (red) and nuclei stained with DAPI (blue).
To obtain the data seen in FIG. 6, the stained mitochondria from FIG. 5 were IF stained and analyzed using MiNA software for ImageJ™.

caspase-3, PARP1 = assay: Western blot of caspase-3 and PARP1 cleavage; settings: U87 cells
Description: (§1) For Western blot analysis, cells were lysed with lysis buffer (20 mM sodium phosphate (pH 7.0), 250 mM NaCl, 30 mM sodium pyrophosphate, 0.1% Nonidet™ P-40, 5 mM EDTA, 10 mM NaF, 0.1 mM Na3VO4, and 1 mM PMSF) supplemented with complete protease inhibitors (Roche™) and homogenized by passage through a 28 gauge needle. Protein concentration was measured with a Bio-Rad™ protein assay dye reagent and results were read using a spectrophotometer (BiophotometerPlus™ by Eppendorf™). Protein extracts were resolved by SDS PAGE on gradient (Thermo Fisher™) or 12% gels. Proteins were then electrotransferred at 350 mA for 80 minutes onto a PVDF membrane (Immobilon-P PVDF). Membranes were blocked with PBST with 5% milk and 1% BSA for 30 minutes. Quantitation of blots was performed Image Studio Lite software (LI-COR Biosciences™).
To check known markers of apoptosis, including caspase-3 cleavage and PARP1 cleavage, U87 cells were treated with doxorubicin as a positive control for apoptotic markers. […] FIG. 17 is a set of WB visualizing the levels of cleaved and un-cleaved caspace-3, and cleaved and un-cleaved PARP1 in cells treated with control (siCtrl) and C9 (siC9; SEQ ID NO:631) siRNA, and U87 cells treated.

p53 null U87 cells [1] = assay: Vacuoles in p53 null U87 clones; settings: p53 null U87 clones KO #4 and KO #9
Description: To generate p53 knockout clones, U87 cells (7×10^5) were transfected with 2 μg p53 CRISPR/Cas9 KO plasmid (Santa Cruz Biotech™, sc-416469) using Lipofectamine 2000 (ThermoFisher™). Two days later, cells were treated with Nutlin-3 (10 μM) for 12 days to inhibit proliferation of cells with wild type p53, thereby enriching for p53 knockout cells. Single-cell clones were selected via limiting dilution, and p53 knockout clones were confirmed by western blotting using p53 antibody (FL-393).
C9 then was knocked down with two independent siRNAs in the two U87 p53 null clones. […] See FIG. 33A, which provides phase contrast images (40×) of two clones (KO #4 and KO #9) of p53 null U87 cells generated by CRISPR, treated with control (siCtrl) and C9 (siC9; SEQ ID NO:631) siRNA, and FIG. 33B, a WB showing C9 levels after C9 KD in KO #4 cells.
FIG. 34 is a graph presenting quantitation of data for about 90 cells, indicating the number of vacuoles per cell. Statistical significance was assessed by unpaired t-test: NS P>0.05, *P≤0.05, **P≤0.01, ***P≤0.001 ****P≤0.0001. FIG. 35 is a WB showing PARP1, phospho-ERK and γ-H2AX levels upon C9 KD (siC9; SEQ ID NO:631) in U87 KO #4 cell line.

p53 null U87 cells [2] = assay: Western blot of PARP1, p-ERK, γ-H2AX in p53 null U87 cells
Description: as §1
In addition, C9 was knocked down with two independent siRNAs in p53 null U87 cells to investigate the role of p53 in the viability of the cells.
See FIG. 37, a WB of p53 null U87 cells (KO #4) treated with control and C9 siRNA and showing levels of PARP1, p-ERK, γ-H2AX. Actin was used as a loading control.

p53 null U87 cells [3] = assay: Mitochondrial imaging in p53 null U87 clones; settings: p53 KO U87 clones KO #4 and KO #9
From the text: C9 then was knocked down in two p53 KO U87 cells lines which were imaged to show whether mitochondrial disorganization depends on p53. […] FIG. 38 is a set of confocal microscopy images of two p53 null U87 clones (KO #4 and KO #9) treated with control and C9 siRNA, stained with Mitotracker red.

## siC9: siRNA targeting C9 mRNA: UUAAUGAAACAAUAAUCACUC (SEQ ID NO:631; sense) and GUGAUUAUUGUUUCAUUAAUC (SEQ ID NO:632; antisense) (listed as RNA, chemistry not given here)
C9
  C9 expression (western blot): reduced expression compared to control
U87 cells; MiNA
  total amount of individual and networked mitochondria staining: increased
U87 cells; MitoTracker
  mitochondrial dye staining of vacuoles: did not stain red
U87 cells; vs control
  mitochondrial network organization: significant mitochondrial network disorganization
caspase-3, PARP1
  PARP1 cleavage: not observed
  PARP1 protein: no PARP1 protein observed
  caspase 3 cleavage: did not lead to caspase 3 cleavage
p53 null U87 cells [1]
  vacuolization: no significant increase in vacuolization
p53 null U87 cells [2]; p53 KO U87 cells
  PARP1 protein: PARP downregulation occurred without the presence of p53
p53 null U87 cells [2]; p53 null U87 cells (KO #4)
  ERK and γ-H2AX phosphorylation: increased ERK and γ-H2AX phosphorylation
p53 null U87 cells [3]
  mitochondrial organization: caused mitochondrial disorganization
